Reference: patent publication US7030265B2, “Retinol derivatives, the method of preparations and the uses thereof” (Chebigen, Inc., priority 2001, dated 2006)

How the values were obtained:
Type in all cases: cell-based
HCT116 (colon cancer) = assay: Cell toxicity test (living cell count); conditions: HCT116 cells, 0, 500, 1000, 5000 nM, 4 days, FIG. 1
Method: (§1) The cell line utilized for cell toxicity test of retinal derivatives were SK-Hep-1(liver cancer), MDA-MB-231 (breast cancer), HaCAT (skin cancer), and HCT116 (colon cancer). Those cell lines were maintained and cultured in DMEM (Dulbecco's Modified Eagle's Medium)/10% FBS containing 10% fetal bovine serum (FBS) (GibcoBRL, Gaithersburg, Md.). 3×10^3 cells, 100 μl media per well were distribute into 96 well microtiter plate and cultured for 24 hours. Each cultured cell lines were treated with various concentrations of retinal derivatives (0, 500, 1000, 5000 nM) for 4 days and living cells were counted with hemocytometer to measure the inhibition effect of cell proliferation.
(§2) The retinal derivatives utilized for the experiments were retinol-(N-formyl-aspartam), retinol, 4-HPR[N-(4-hydroxyphenyl)retineamide] (Sigma Co., St. Louis, Mo.). Those derivatives were eluted in dimethylsulfoxide and the concentration of dimethylsulfoxide added into culture media was kept at not over 0.01%.

HaCAT (skin cancer) = assay: Cell toxicity test (living cell count); conditions: HaCAT cells, 0, 500, 1000, 5000 nM, 4 days, FIG. 1
Method: as §1, §2

[1] = tested on: MDA-MB-231 (breast cancer); assay: Cell toxicity test (living cell count); conditions: MDA-MB-231 cells, 0, 500, 1000, 5000 nM, 4 days, FIG. 1
Method: as §1, §2

SK-Hep-1 (liver cancer) = assay: Cell toxicity test (living cell count); conditions: SK-Hep-1 cells, 0, 500, 1000, 5000 nM, 4 days, FIG. 1
Method: as §1, §2

retinoic acid receptor α = target: T1, retinoic acid receptor α (Homo sapiens, UniProt P10276); assay: RAR activity test, DR5-tk-CAT reporter in HaCAT cells; conditions: 1 μM, CAT ELISA, FIG. 2 (A)
T1 construct: expressed in transfected cells; b135 says HaCAT
T1 sequence (P10276 1-462): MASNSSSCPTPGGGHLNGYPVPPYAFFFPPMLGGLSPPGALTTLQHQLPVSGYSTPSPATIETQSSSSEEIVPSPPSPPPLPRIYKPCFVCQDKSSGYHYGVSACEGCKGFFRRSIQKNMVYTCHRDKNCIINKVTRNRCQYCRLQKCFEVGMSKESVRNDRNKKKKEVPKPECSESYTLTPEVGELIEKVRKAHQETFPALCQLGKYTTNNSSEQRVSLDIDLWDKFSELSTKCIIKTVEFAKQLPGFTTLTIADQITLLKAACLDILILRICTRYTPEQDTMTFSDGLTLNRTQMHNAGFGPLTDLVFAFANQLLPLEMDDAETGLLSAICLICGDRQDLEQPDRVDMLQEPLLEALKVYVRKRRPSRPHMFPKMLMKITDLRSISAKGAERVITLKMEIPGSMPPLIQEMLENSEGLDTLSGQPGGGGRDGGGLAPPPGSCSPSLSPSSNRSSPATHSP
Excerpt: (§3) To analyze the effects of retinol-(N-formyl-aspartam) on the activity of retinoic acid receptor, skin cancer (HaCAT) cell lines were utilized to measure the activity of retinoic acid receptor/retinoid X receptor.
(§4) Recombinant DNA, DR5-tk-CAT or DR1-tk-CAT consisting of DR1 or DR5, effectors of retinoic acid receptor/retinoid X receptor, thymine kinase promoter, and CAT(chloramphenicol acetyl transferase) were mixed with the plasmid DNA expressing retinoic acid receptor α, β, ? or retinoid X receptor α, β, ? to cotransfect skin cancer (HaCAT) cell line with lipofectamine (GibcoBRL). The cotransfected cell lines were cultured for 1 day on DMEM/10% FBS media, each retinol derivatives (1 μM) were added and cultured for one more day, 5% CO2, 37° C. The cells were washed with phosphate-buffered saline (PBS), and the proteins were isolated from each cells, and the activity of β-galactosidase and protein contents were measured to determine transfection efficacy, the transcription level of RAR or RXR receptor were measured with CAT ELISA (Roche Molecular Biochemical, Mannheim, Germany).
(§5) To determine the effect of retinol-(N-formyl-aspartam) on retinoic acid receptors, each retinoic acid receptor (α, β, or ? ) expression vector and activity measuring DR5-tk-CAT plasmid were introduced with liposome. After treating cells with retinol-(N-formyl-aspartam), the cell extracts were isolated. The expression level of CAT were measured with CAT ELISA to determine the effect of retinol-(N-formyl-aspartam) on the activity of retinoic acid receptors.

retinoic acid receptor β = target: T2, retinoic acid receptor β (Homo sapiens, UniProt P10826); assay: as above; conditions: 1 μM, CAT ELISA, FIG. 2 (A)
T2 construct: expressed in transfected cells; b135 says HaCAT
T2 sequence (P10826 1-455): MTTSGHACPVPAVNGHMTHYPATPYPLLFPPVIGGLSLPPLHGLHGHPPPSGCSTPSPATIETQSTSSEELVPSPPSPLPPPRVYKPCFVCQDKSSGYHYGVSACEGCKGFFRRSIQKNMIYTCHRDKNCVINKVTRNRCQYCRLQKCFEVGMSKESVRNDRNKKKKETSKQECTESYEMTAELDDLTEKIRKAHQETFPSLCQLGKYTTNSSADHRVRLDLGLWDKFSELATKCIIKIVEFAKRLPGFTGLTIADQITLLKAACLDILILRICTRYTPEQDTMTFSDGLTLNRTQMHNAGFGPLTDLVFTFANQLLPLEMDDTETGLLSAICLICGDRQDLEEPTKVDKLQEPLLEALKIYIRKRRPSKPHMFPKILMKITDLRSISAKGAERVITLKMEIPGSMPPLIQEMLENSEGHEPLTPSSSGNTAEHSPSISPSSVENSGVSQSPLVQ
Excerpt: as §3, §4, §5

retinoic acid receptor γ = target: T3, retinoic acid receptor γ (Homo sapiens, UniProt P13631); assay: as above; conditions: 1 μM, CAT ELISA, FIG. 2 (A)
T3 construct: expressed in transfected cells; b135 says HaCAT
T3 sequence (P13631 1-454): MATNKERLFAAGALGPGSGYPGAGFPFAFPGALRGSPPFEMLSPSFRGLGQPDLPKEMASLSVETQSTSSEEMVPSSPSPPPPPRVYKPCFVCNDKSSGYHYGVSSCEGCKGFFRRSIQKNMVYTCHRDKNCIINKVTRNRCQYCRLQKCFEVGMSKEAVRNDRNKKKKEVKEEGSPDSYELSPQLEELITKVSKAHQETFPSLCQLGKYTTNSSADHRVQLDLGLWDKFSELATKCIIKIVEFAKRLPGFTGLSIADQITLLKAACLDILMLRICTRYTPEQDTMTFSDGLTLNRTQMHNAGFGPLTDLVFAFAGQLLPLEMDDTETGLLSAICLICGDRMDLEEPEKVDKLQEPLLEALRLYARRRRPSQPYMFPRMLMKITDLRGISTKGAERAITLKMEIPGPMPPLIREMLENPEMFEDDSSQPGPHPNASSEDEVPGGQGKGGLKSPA
Excerpt: as §3, §4, §5

activation of retinoic acid receptor α (retinoic acid receptor α): high activation
activation of retinoic acid receptor β (retinoic acid receptor β): weak activation
activation of retinoic acid receptor γ (retinoic acid receptor γ): weak activation
SMILES: COC(=O)C(Cc1ccccc1)NC(=O)[C@H](CC(=O)OC/C=C(C)/C=C/C=C(C)/C=C/C1=C(C)CCCC1(C)C)NC=O (stereo partly drawn) [retinol-(N-formyl-aspartam), (2E,4E,6E,8E)-3,7-dimethyl-9-(2,6,6-trimethyl-1-cyclohexenyl)-2,4,6,8-nonatetraenyl(3S)-4-[(1-benzyl-2-methoxy-2-oxoethyl)amino]-3-formylamino-4-oxobutanoate]
cell toxicity (inhibition of cell proliferation) (HCT116 (colon cancer)): less toxicity than retinol
cell toxicity (inhibition of cell proliferation) (HaCAT (skin cancer)): no toxicity
cell toxicity (inhibition of cell proliferation) [1]: no toxicity
cell toxicity (inhibition of cell proliferation) (SK-Hep-1 (liver cancer)): no toxicity
